{"source": "the kinase profiling compilation of Christmann-Franck et al. (2016)", "test_in_all_cases": "radiometric filter-binding kinase assay", "key": {"MKNK2 (human)": {"molecular_target": "MKNK2 (human) (UniProt Q9HBH9)"}, "IKBKB (human)": {"molecular_target": "IKBKB (human) (UniProt O14920)", "sequence (O14920 whole entry, looked up)": "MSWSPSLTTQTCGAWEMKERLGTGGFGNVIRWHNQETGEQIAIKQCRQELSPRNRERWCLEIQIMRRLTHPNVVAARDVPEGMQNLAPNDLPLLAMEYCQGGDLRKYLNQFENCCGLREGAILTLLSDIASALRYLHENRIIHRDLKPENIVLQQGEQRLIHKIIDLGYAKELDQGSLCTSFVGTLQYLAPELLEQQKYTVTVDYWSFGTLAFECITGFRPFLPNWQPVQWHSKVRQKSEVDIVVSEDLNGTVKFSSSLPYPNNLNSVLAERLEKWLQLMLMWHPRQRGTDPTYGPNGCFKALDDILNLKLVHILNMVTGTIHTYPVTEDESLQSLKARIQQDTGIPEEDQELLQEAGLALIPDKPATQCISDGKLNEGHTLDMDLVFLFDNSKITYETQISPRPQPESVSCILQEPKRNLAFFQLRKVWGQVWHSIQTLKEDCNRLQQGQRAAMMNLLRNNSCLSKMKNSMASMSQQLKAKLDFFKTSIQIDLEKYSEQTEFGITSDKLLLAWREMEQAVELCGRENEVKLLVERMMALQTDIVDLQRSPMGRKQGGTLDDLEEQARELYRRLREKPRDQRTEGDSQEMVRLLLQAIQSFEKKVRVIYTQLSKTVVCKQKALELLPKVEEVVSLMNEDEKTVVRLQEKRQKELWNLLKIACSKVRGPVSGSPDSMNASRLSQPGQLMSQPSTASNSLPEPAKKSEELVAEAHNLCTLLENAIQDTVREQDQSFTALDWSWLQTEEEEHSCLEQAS"}, "CSK (human)": {"molecular_target": "CSK (human) (UniProt P41240)", "sequence (P41240 whole entry, looked up)": "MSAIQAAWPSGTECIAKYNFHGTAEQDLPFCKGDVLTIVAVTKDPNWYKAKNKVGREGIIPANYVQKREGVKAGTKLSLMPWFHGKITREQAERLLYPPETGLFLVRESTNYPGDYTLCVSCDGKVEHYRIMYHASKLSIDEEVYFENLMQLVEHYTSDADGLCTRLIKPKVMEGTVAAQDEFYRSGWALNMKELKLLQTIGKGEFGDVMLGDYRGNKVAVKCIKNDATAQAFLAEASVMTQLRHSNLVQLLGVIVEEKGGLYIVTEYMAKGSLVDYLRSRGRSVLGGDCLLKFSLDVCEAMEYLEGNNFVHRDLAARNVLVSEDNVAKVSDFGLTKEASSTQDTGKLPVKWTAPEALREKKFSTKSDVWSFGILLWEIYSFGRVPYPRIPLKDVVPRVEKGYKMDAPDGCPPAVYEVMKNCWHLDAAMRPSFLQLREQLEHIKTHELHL"}, "[1]": {"system": "AKT2 (human), P31751 [S474D]"}, "MAPK15 (human)": {"molecular_target": "MAPK15 (human) (UniProt Q8TD08)", "sequence (Q8TD08 whole entry, looked up)": "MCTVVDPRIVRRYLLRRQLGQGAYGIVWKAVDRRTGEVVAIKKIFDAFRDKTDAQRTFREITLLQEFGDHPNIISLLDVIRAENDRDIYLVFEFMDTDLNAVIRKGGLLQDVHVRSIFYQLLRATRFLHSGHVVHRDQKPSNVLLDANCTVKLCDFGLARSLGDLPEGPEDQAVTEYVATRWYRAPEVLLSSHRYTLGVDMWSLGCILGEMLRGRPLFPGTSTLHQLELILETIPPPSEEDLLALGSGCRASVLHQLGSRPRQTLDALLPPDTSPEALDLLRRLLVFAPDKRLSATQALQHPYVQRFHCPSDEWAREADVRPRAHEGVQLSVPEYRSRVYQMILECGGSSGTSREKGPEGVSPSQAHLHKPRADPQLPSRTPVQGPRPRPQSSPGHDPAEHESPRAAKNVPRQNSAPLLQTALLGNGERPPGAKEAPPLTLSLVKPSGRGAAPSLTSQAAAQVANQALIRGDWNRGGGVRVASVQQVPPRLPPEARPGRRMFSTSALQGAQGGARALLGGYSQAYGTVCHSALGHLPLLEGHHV"}, "MAPK1 (human)": {"molecular_target": "MAPK1 (human) (UniProt P28482)"}, "MAPK3 (human)": {"molecular_target": "MAPK3 (human) (UniProt P27361)", "sequence (P27361 whole entry, looked up)": "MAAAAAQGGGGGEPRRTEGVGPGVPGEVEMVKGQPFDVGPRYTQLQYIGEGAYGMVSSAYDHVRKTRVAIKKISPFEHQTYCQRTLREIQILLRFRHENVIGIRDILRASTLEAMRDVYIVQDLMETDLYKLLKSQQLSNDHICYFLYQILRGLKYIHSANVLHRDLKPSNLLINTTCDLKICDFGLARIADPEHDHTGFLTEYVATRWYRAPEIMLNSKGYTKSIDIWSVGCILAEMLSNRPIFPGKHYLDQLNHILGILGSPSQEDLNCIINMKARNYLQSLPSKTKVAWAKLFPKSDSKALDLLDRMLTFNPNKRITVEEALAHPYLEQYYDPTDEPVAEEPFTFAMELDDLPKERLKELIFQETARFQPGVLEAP"}, "SYK (human)": {"molecular_target": "SYK (human) (UniProt P43405)"}, "INSRR (human)": {"molecular_target": "INSRR (human) (UniProt P14616)"}, "EPHB1 (human)": {"molecular_target": "EPHB1 (human) (UniProt P54762)", "conditions": "compound 1.0 µM"}, "MAPK14 (human)": {"molecular_target": "MAPK14 (human) (UniProt Q16539)", "sequence (Q16539 whole entry, looked up)": "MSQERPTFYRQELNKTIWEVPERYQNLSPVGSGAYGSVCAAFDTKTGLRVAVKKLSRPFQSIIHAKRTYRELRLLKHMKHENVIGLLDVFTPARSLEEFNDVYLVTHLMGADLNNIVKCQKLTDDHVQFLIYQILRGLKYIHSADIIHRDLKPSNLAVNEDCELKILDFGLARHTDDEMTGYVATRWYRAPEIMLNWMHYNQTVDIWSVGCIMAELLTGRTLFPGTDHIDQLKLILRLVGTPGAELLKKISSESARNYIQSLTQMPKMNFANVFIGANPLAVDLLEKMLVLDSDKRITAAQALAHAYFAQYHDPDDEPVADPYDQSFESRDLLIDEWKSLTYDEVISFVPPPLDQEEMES"}, "CSNK1D (human)": {"molecular_target": "CSNK1D (human) (UniProt P48730)", "sequence (P48730 whole entry, looked up)": "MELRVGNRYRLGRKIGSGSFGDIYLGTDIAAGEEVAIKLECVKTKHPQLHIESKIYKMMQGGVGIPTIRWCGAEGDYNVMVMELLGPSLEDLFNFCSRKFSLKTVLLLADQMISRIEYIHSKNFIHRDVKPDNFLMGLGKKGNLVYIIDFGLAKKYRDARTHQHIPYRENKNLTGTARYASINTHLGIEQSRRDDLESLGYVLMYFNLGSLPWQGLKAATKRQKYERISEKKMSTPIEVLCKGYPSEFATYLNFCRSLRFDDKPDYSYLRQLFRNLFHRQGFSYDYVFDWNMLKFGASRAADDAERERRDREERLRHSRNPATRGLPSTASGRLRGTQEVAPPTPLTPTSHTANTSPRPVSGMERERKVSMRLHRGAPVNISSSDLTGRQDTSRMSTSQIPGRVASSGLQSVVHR"}, "PLK1 (human)": {"molecular_target": "PLK1 (human) (UniProt P53350)", "sequence (P53350 whole entry, looked up)": "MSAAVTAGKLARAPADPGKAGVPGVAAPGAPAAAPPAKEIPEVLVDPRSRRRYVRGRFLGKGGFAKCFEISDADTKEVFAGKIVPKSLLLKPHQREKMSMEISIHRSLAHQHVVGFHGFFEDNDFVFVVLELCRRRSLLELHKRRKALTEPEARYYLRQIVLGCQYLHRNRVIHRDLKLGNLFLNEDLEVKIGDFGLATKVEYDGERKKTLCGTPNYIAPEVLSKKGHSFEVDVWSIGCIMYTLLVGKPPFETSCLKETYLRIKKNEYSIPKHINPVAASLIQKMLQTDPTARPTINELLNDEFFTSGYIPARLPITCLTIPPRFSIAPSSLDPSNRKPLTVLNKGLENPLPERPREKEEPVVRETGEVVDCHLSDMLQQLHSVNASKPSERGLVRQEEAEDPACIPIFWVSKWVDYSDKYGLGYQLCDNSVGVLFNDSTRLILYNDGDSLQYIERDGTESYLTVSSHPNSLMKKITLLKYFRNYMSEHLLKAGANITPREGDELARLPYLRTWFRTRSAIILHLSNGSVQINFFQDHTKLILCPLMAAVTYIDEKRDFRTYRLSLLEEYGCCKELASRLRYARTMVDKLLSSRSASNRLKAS"}, "MAPKAPK3 (human)": {"molecular_target": "MAPKAPK3 (human) (UniProt Q16644)"}, "PRKAA1 or PRKAA2 (rat)": {"system": "PRKAA1 or PRKAA2 (rat)", "conditions": "accession and sequence are those of the human protein"}, "[2]": {"system": "RPS6KB1 (human), P23443 [T412E]"}, "PRKACA (human)": {"molecular_target": "PRKACA (human) (UniProt P17612)"}, "RIPK2 (human)": {"molecular_target": "RIPK2 (human) (UniProt O43353)"}, "SRC (human)": {"molecular_target": "SRC (human) (UniProt P12931)"}, "EPHA4 (human)": {"molecular_target": "EPHA4 (human) (UniProt P54764)"}, "RPS6KA1 KD1 KD2 (human)": {"molecular_target": "RPS6KA1 KD1 KD2 (human) (UniProt Q15418)", "sequence (Q15418 whole entry, looked up)": "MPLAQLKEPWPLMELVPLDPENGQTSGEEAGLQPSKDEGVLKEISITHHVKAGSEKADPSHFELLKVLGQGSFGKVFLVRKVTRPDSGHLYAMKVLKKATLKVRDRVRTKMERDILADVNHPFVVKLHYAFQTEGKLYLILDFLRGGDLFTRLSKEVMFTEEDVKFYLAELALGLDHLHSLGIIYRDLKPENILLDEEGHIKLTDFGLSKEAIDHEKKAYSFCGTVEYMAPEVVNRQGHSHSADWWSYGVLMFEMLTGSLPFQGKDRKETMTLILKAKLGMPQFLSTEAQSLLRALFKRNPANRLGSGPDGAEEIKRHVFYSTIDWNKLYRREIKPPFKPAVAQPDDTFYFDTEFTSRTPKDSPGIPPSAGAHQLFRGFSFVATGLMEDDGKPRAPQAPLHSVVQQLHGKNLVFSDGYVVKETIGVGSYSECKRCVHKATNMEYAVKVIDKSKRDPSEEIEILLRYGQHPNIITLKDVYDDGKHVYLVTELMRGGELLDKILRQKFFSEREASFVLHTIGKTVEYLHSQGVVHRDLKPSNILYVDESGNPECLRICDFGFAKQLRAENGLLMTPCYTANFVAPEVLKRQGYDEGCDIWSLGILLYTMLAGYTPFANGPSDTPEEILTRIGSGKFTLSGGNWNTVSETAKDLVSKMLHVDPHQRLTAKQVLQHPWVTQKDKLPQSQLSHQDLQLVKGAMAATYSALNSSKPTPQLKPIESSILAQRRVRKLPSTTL"}, "TTK (human)": {"molecular_target": "TTK (human) (UniProt P33981)"}, "PAK7 (human)": {"molecular_target": "PAK7 (human) (UniProt Q9P286)"}, "CHEK2 (human)": {"molecular_target": "CHEK2 (human) (UniProt O96017)"}, "BTK (human)": {"molecular_target": "BTK (human) (UniProt Q06187)"}, "EPHB4 (human)": {"molecular_target": "EPHB4 (human) (UniProt P54760)"}, "NEK6 (human)": {"molecular_target": "NEK6 (human) (UniProt Q9HC98)"}, "FLT1 (human)": {"molecular_target": "FLT1 (human) (UniProt P17948)"}, "MAP2K1 (human)": {"molecular_target": "MAP2K1 (human) (UniProt Q02750)"}, "PIM2 (human)": {"molecular_target": "PIM2 (human) (UniProt Q9P1W9)", "sequence (Q9P1W9 whole entry, looked up)": "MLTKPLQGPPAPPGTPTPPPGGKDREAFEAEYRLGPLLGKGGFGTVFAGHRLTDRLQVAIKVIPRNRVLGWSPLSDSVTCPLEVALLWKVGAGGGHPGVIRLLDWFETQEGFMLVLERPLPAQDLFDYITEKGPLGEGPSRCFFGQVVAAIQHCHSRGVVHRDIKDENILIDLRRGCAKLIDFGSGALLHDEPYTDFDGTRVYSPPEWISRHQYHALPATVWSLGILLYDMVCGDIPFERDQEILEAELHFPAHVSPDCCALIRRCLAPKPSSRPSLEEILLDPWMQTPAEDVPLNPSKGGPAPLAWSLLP"}, "RPS6KA3 KD1 KD2 (human)": {"molecular_target": "RPS6KA3 KD1 KD2 (human) (UniProt P51812)"}, "IKBKE (human)": {"molecular_target": "IKBKE (human) (UniProt Q14164)"}, "RPS6KA5 KD1 KD2 (human)": {"molecular_target": "RPS6KA5 KD1 KD2 (human) (UniProt O75582)"}, "NEK2 (human)": {"molecular_target": "NEK2 (human) (UniProt P51955)", "sequence (P51955 whole entry, looked up)": "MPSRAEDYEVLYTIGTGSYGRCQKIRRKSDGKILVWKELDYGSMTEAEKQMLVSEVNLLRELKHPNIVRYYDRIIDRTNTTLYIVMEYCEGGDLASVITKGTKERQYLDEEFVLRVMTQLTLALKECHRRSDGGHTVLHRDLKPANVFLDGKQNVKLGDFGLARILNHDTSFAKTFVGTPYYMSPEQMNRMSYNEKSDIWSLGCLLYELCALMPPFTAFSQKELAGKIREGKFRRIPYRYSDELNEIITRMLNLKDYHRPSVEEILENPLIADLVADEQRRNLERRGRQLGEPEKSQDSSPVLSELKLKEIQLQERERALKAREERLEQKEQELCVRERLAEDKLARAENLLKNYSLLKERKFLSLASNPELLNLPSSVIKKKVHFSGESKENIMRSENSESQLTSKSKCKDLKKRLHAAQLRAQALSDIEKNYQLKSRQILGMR"}, "CDK2 CCNA2 (human)": {"molecular_target": "CDK2 CCNA2 (human) (UniProt P20248+P24941)"}}}
{"smiles": "O=c1c(O)c(-c2ccc(O)c(O)c2)oc2cc(O)c(O)c(O)c12", "values": [{"measurement": "residual activity", "setting": "MKNK2 (human); compound 1.0 µM", "value": 63, "unit": "%"}, {"measurement": "residual activity", "setting": "MKNK2 (human); compound 10.0 µM", "value": 26, "unit": "%"}, {"measurement": "residual activity", "setting": "IKBKB (human); compound 1.0 µM", "value": 100, "unit": "%"}, {"measurement": "residual activity", "setting": "IKBKB (human); compound 10.0 µM", "value": 16, "unit": "%"}, {"measurement": "residual activity", "setting": "CSK (human); compound 1.0 µM", "value": 125, "unit": "%"}, {"measurement": "residual activity", "setting": "CSK (human); compound 10.0 µM", "value": 74, "unit": "%"}, {"measurement": "residual activity", "setting": "[1]; compound 1.0 µM", "value": 21, "unit": "%"}, {"measurement": "residual activity", "setting": "[1]; compound 10.0 µM", "value": 1, "unit": "%"}, {"measurement": "residual activity", "setting": "MAPK15 (human); compound 1.0 µM", "value": 89, "unit": "%"}, {"measurement": "residual activity", "setting": "MAPK15 (human); compound 10.0 µM", "value": 65, "unit": "%"}, {"measurement": "residual activity", "setting": "MAPK1 (human); compound 1.0 µM", "value": 107, "unit": "%"}, {"measurement": "residual activity", "setting": "MAPK1 (human); compound 10.0 µM", "value": 105, "unit": "%"}, {"measurement": "residual activity", "setting": "MAPK3 (human); compound 1.0 µM", "value": 101, "unit": "%"}, {"measurement": "residual activity", "setting": "MAPK3 (human); compound 10.0 µM", "value": 54, "unit": "%"}, {"measurement": "residual activity", "setting": "SYK (human); compound 1.0 µM", "value": 89, "unit": "%"}, {"measurement": "residual activity", "setting": "SYK (human); compound 10.0 µM", "value": 93, "unit": "%"}, {"measurement": "residual activity", "setting": "INSRR (human); compound 1.0 µM", "value": 76, "unit": "%"}, {"measurement": "residual activity", "setting": "INSRR (human); compound 10.0 µM", "value": 21, "unit": "%"}, {"measurement": "residual activity", "setting": "EPHB1 (human)", "value": 85, "unit": "%"}, {"measurement": "residual activity", "setting": "MAPK14 (human); compound 1.0 µM", "value": 100, "unit": "%"}, {"measurement": "residual activity", "setting": "MAPK14 (human); compound 10.0 µM", "value": 119, "unit": "%"}, {"measurement": "residual activity", "setting": "CSNK1D (human); compound 1.0 µM", "value": 90, "unit": "%"}, {"measurement": "residual activity", "setting": "CSNK1D (human); compound 10.0 µM", "value": 29, "unit": "%"}, {"measurement": "residual activity", "setting": "PLK1 (human); compound 1.0 µM", "value": 107, "unit": "%"}, {"measurement": "residual activity", "setting": "PLK1 (human); compound 10.0 µM", "value": 23, "unit": "%"}, {"measurement": "residual activity", "setting": "MAPKAPK3 (human); compound 1.0 µM", "value": 92, "unit": "%"}, {"measurement": "residual activity", "setting": "MAPKAPK3 (human); compound 10.0 µM", "value": 14, "unit": "%"}, {"measurement": "residual activity", "setting": "PRKAA1 or PRKAA2 (rat); compound 1.0 µM", "value": 73, "unit": "%"}, {"measurement": "residual activity", "setting": "PRKAA1 or PRKAA2 (rat); compound 10.0 µM", "value": 9, "unit": "%"}, {"measurement": "residual activity", "setting": "[2]; compound 1.0 µM", "value": 104, "unit": "%"}, {"measurement": "residual activity", "setting": "[2]; compound 10.0 µM", "value": 14, "unit": "%"}, {"measurement": "residual activity", "setting": "PRKACA (human); compound 1.0 µM", "value": 109, "unit": "%"}, {"measurement": "residual activity", "setting": "PRKACA (human); compound 10.0 µM", "value": 79, "unit": "%"}, {"measurement": "residual activity", "setting": "RIPK2 (human); compound 1.0 µM", "value": 83, "unit": "%"}, {"measurement": "residual activity", "setting": "RIPK2 (human); compound 10.0 µM", "value": 7, "unit": "%"}, {"measurement": "residual activity", "setting": "SRC (human); compound 1.0 µM", "value": 38, "unit": "%"}, {"measurement": "residual activity", "setting": "SRC (human); compound 10.0 µM", "value": 25, "unit": "%"}, {"measurement": "residual activity", "setting": "EPHA4 (human); compound 1.0 µM", "value": 117, "unit": "%"}, {"measurement": "residual activity", "setting": "EPHA4 (human); compound 10.0 µM", "value": 74, "unit": "%"}, {"measurement": "residual activity", "setting": "RPS6KA1 KD1 KD2 (human); compound 1.0 µM", "value": 51, "unit": "%"}, {"measurement": "residual activity", "setting": "RPS6KA1 KD1 KD2 (human); compound 10.0 µM", "value": 15, "unit": "%"}, {"measurement": "residual activity", "setting": "TTK (human); compound 1.0 µM", "value": 75, "unit": "%"}, {"measurement": "residual activity", "setting": "TTK (human); compound 10.0 µM", "value": 36, "unit": "%"}, {"measurement": "residual activity", "setting": "PAK7 (human); compound 1.0 µM", "value": 67, "unit": "%"}, {"measurement": "residual activity", "setting": "PAK7 (human); compound 10.0 µM", "value": 55, "unit": "%"}, {"measurement": "residual activity", "setting": "CHEK2 (human); compound 1.0 µM", "value": 48, "unit": "%"}, {"measurement": "residual activity", "setting": "CHEK2 (human); compound 10.0 µM", "value": 5, "unit": "%"}, {"measurement": "residual activity", "setting": "BTK (human); compound 1.0 µM", "value": 61, "unit": "%"}, {"measurement": "residual activity", "setting": "BTK (human); compound 10.0 µM", "value": 32, "unit": "%"}, {"measurement": "residual activity", "setting": "EPHB4 (human); compound 1.0 µM", "value": 90, "unit": "%"}, {"measurement": "residual activity", "setting": "EPHB4 (human); compound 10.0 µM", "value": 56, "unit": "%"}, {"measurement": "residual activity", "setting": "NEK6 (human); compound 1.0 µM", "value": 99, "unit": "%"}, {"measurement": "residual activity", "setting": "NEK6 (human); compound 10.0 µM", "value": 21, "unit": "%"}, {"measurement": "residual activity", "setting": "FLT1 (human); compound 1.0 µM", "value": 27, "unit": "%"}, {"measurement": "residual activity", "setting": "FLT1 (human); compound 10.0 µM", "value": 7, "unit": "%"}, {"measurement": "residual activity", "setting": "MAP2K1 (human); compound 1.0 µM", "value": 84, "unit": "%"}, {"measurement": "residual activity", "setting": "MAP2K1 (human); compound 10.0 µM", "value": 24, "unit": "%"}, {"measurement": "residual activity", "setting": "PIM2 (human); compound 1.0 µM", "value": 74, "unit": "%"}, {"measurement": "residual activity", "setting": "PIM2 (human); compound 10.0 µM", "value": 11, "unit": "%"}, {"measurement": "residual activity", "setting": "RPS6KA3 KD1 KD2 (human); compound 1.0 µM", "value": 22, "unit": "%"}, {"measurement": "residual activity", "setting": "RPS6KA3 KD1 KD2 (human); compound 10.0 µM", "value": 12, "unit": "%"}, {"measurement": "residual activity", "setting": "IKBKE (human); compound 1.0 µM", "value": 69, "unit": "%"}, {"measurement": "residual activity", "setting": "IKBKE (human); compound 10.0 µM", "value": 21, "unit": "%"}, {"measurement": "residual activity", "setting": "RPS6KA5 KD1 KD2 (human); compound 1.0 µM", "value": 88, "unit": "%"}, {"measurement": "residual activity", "setting": "RPS6KA5 KD1 KD2 (human); compound 10.0 µM", "value": 38, "unit": "%"}, {"measurement": "residual activity", "setting": "NEK2 (human); compound 1.0 µM", "value": 86, "unit": "%"}, {"measurement": "residual activity", "setting": "NEK2 (human); compound 10.0 µM", "value": 13, "unit": "%"}, {"measurement": "residual activity", "setting": "CDK2 CCNA2 (human); compound 1.0 µM", "value": 89, "unit": "%"}, {"measurement": "residual activity", "setting": "CDK2 CCNA2 (human); compound 10.0 µM", "value": 32, "unit": "%"}]}
